Test system: seizures
Test: Reduction in the number of seizures in individuals with multiple daily seizures treated with rapamycin
Format: in vivo, human
Details: up to 7 mg/day rapamycin in combination with an anti-epileptic drug regimen, treatment 31-32 months
Procedure: In particular, 14 individuals experiencing multiple daily seizures (4 males with diagnosed TSC, 5 females with diagnosed TSC, 1 person with diagnosed Lennox-Gastaut Syndrome, and 4 females with diagnosed Lennox-Gastaut Syndrome) between the ages of 3-18 were administered rapamycin in combination with an anti-epileptic drug regimen. […] Each individual received between up to 7 mg/day of rapamycin. […] The duration of treatment was between 31 and 32 months.

CO[C@H]1C[C@@H]2CC[C@@H](C)[C@@](O)(O2)C(=O)C(=O)N2CCCC[C@H]2C(=O)O[C@H]([C@H](C)C[C@@H]2CC[C@@H](O)[C@H](OC)C2)CC(=O)[C@H](C)/C=C(\C)[C@@H](O)[C@@H](OC)C(=O)[C@H](C)C[C@H](C)/C=C/C=C/C=C/1C [rapamycin, Rapamycin]
reduction in seizures (2 of the individuals diagnosed with TSC): greater than 90%
reduction in seizures (3 of the individuals diagnosed with Lennox-Gastaut Syndrome): greater than 90%
reduction in seizures (5 of the individuals diagnosed with Lennox-Gastaut Syndrome): greater than 50%
reduction in seizures (5 of the individuals diagnosed with TSC): greater than 50%

Reference: patent publication US20080188461A1, “Compositions and methods for detecting, preventing and treating seizures and seizure related disorders” (Regents of the University of Michigan, priority 2007, published 2008)
